Measured values reported in patent US12558428B2, “Heterobifunctional compounds and their use in treating disease” (Halda Therapeutics OpCo, Inc., priority 2024, dated 2026).

Experiments:
Format in all cases: cell-based
[1] = test system: MCF7 cells (ATCC #HTB-22); assay: Cellular growth inhibition assay, MCF7 cells purchased from ATCC; settings: Homo sapiens, MCF7, 144 h, Table 8-A; MCF7 cells purchased from ATCC; six days; CellTiter-Glo; read-out: GI50
How it was run: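 GI50 values come from a four-parameter fit of CellTiter-Glo 2.0 luminescence after six days of compound exposure at 37° C. Seeding density depended on the source: 225 cells/well for ECACC MCF7, 1,500 for ATCC. Medium was RPMI 1640 with 10% FBS and 0.2 U/ml insulin.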

[2] = test system: T-Rex 293 cells having increased expression of estrogen receptor alpha protein; assay: Cellular growth inhibition assay, T-Rex 293 cells, (+) doxycycline; settings: T-REx-293, 72 h, Table 7-A; T-Rex 293 cells with doxycycline (increased ERα expression); 72 hours; CellTiter-Glo; read-out: (+) Dox GI50
How it was run: (§1)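 Growth of a doxycycline-inducible ERα T-Rex 293 clone, induced or not with 3 ng/mL doxycycline, was followed for 72 h with test compound in hormone-depleted medium. CellTiter-Glo luminescence gave GI50.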

[3] = test system: T-Rex 293 cells lacking increased expression of estrogen receptor alpha protein; assay: Cellular growth inhibition assay, T-Rex 293 cells, (−) doxycycline; settings: T-REx-293, 72 h, Table 7-A; T-Rex 293 cells without doxycycline (lacking increased ERα expression); 72 hours; CellTiter-Glo; read-out: (−) Dox GI50
How it was run: as §1

| SMILES | GI50 [1] | GI50 [2] | GI50 [3] |
| --- | --- | --- | --- |
| Cc1sc2c(c1C)C(c1ccc(N3CCC(O)(CN4CCN(c5ccc(C6=C(c7ccccc7Cl)CCCc7cc(C(=O)O)ccc76)c(F)c5)CC4)CC3)cc1)=N[C@@H](C)c1nnc(C)n1-2 [IV-34] | < 50 nM | < 50 nM | 50 to 500 nM |
| Cc1sc2c(c1C)C(c1ccc(N3CCC(O)(CN4CCN(c5ccc(C6=C(c7ccccc7Cl)CCCc7cc(C(=O)O)ccc76)cc5F)CC4)CC3)cc1)=N[C@@H](C)c1nnc(C)n1-2 [IV-35] | < 50 nM | < 50 nM | 500 to 2500 nM |
| Cc1sc2c(c1C)C(c1ccc(N3CC(CN4CC(CC5CN(c6ccc(C7=C(c8ccccc8)CCCc8cc(C(=O)O)ccc87)cc6)C5)C4)C3)cc1)=N[C@@H](C)c1nnc(C)n1-2 [IV-36] | < 50 nM | < 50 nM | 50 to 500 nM |
| Cc1sc2c(c1C)C(c1ccc(N3CCC(O)(CN4CCN(c5ccc(C6=C(c7ccc(F)cc7)CCCc7cc(C(=O)O)ccc76)cc5)CC4)CC3)cc1)=N[C@@H](C)c1nnc(C)n1-2 [IV-37] | < 50 nM | < 50 nM | 500 to 2500 nM |
| Cc1sc2c(c1C)C(c1ccc(N3CC(CN4CCN(CC5CN(c6ccc(C7=C(c8ccc(F)cc8)CCCc8cc(C(=O)O)ccc87)cc6)C5)CC4)C3)cc1)=N[C@@H](C)c1nnc(C)n1-2 [IV-38] | < 50 nM | < 50 nM | 500 to 2500 nM |
| Cc1sc2c(c1C)C(c1ccc(N3CCC(CN4CCN(c5ccc(C6=C(c7ccccc7)CCCc7cc(O)ccc76)cc5)CC4)CC3)cc1)=N[C@@H](C)c1nnc(C)n1-2 [IV-39] | 50 to 500 nM | < 50 nM | > 2500 nM |
| Cc1sc2c(c1C)C(c1ccc(N3CCC(CN4CCN(c5ccc(C6=C(c7ccccc7Cl)CCCc7cc(O)ccc76)cc5)CC4)CC3)cc1)=N[C@@H](C)c1nnc(C)n1-2 [IV-40] | < 50 nM | < 50 nM | > 2500 nM |
| Cc1sc2c(c1C)C(c1ccc(N3CC4(CC(CN5CCC(c6ccc(C7=C(c8ccccc8)CCCc8cc(C(=O)O)ccc87)cc6)CC5)C4)C3)cc1)=N[C@@H](C)c1nnc(C)n1-2 [IV-41] | < 50 nM | < 50 nM | 50 to 500 nM |
| Cc1sc2c(c1C)C(c1ccc(N3CC(CC4(O)CN(CC5CN(c6ccc(C7=C(c8ccccc8)CCCc8cc(C(=O)O)ccc87)cc6)C5)C4)C3)cc1)=N[C@@H](C)c1nnc(C)n1-2 [IV-42] | < 50 nM | < 50 nM | 50 to 500 nM |
| Cc1sc2c(c1C)C(c1ccc(N3CC(O)(CC4CN(CC5CN(c6ccc(C7=C(c8ccccc8)CCCc8cc(C(=O)O)ccc87)cc6)C5)C4)C3)cc1)=N[C@@H](C)c1nnc(C)n1-2 [IV-43] | < 50 nM | < 50 nM | 50 to 500 nM |

The next lines start with results.

| GI50 [1] | SMILES | GI50 [2] | GI50 [3] |
| --- | --- | --- | --- |
| < 50 nM | Cc1sc2c(c1C)C(c1ccc(N3CC4(CCC(CN5CCC(c6ccc(C7=C(c8ccccc8)CCCc8cc(C(=O)O)ccc87)cc6)CC5)CC4)C3)cc1)=N[C@@H](C)c1nnc(C)n1-2 [IV-44] | < 50 nM | 500 to 2500 nM |
| < 50 nM | Cc1sc2c(c1C)C(c1ccc(N3CC(O)(CN4CCN(CC5CN(c6ccc(C7=C(c8ccccc8)CCCc8cc(C(=O)O)ccc87)cc6)C5)CC4)C3)cc1)=N[C@@H](C)c1nnc(C)n1-2 [IV-45] | < 50 nM | < 50 nM |
| 50 to 500 nM | Cc1sc2c(c1C)C(c1ccc(C3CN(CC4(O)CCN(CC5CN(c6ccc(C7=C(c8ccccc8)CCCc8cc(C(=O)O)ccc87)cc6)C5)CC4)C3)cc1)=N[C@@H](C)c1nnc(C)n1-2 [IV-46] | < 50 nM | 500 to 2500 nM |
| < 50 nM | Cc1sc2c(c1C)C(c1ccc(N3CC4(CCC(CN5CCC(c6ccc(C7=C(c8ccccc8)CCCc8cc(O)ccc87)cc6)CC5)CC4)C3)cc1)=N[C@@H](C)c1nnc(C)n1-2 [IV-47] | < 50 nM | 500 to 2500 nM |
| < 50 nM | Cc1sc2c(c1C)C(c1ccc(N3CCC(CN4CCN(c5ccc(C6=C(c7ccccc7Cl)CCCc7cc(C(=O)O)ccc76)c(F)c5)CC4)CC3)cc1)=N[C@@H](C)c1nnc(C)n1-2 [IV-48] | < 50 nM | 500 to 2500 nM |
